Data taken from PMC10470178, “Long-acting lenacapavir protects macaques against intravenous challenge with simian-tropic HIV” (eBioMedicine, 2023).
Where two headings read alike, the source gives them in different places.

Key:
[1] = Equilibrium dialysis shift assay in PTM plasma; format: in vitro ADME, pigtail macaque; settings: competitive equilibrium dialysis, LEN 2 μM in 10% PTM plasma, 4 donors, 24 h, 37 °C
Description: The protein shift ratio for LEN in PTM plasma was determined by competitive equilibrium dialysis. Lenacapavir (2 μM) was spiked into 10% PTM plasma from each of 4 individual donors (3 males and 1 female) and then placed in triplicate into one side of assembled dialysis cells (Harvard Apparatus), followed by the addition of RPMI cell culture medium containing 10% foetal bovine serum to the opposite side of each cell. After a 24-h equilibration period at 37 °C, plasma and cell culture medium samples were collected and individually mixed 1:1 with the reciprocal blank matrix. Samples were then deproteinated following the addition of acetonitrile (1:4 ratio, respectively) containing 50 ng/ml warfarin and 50 ng/ml ritonavir as an internal standard and analysed using a liquid chromatography with tandem mass spectrometry (LC-MS/MS) method utilizing a SciEx API 4000 triple quadrupole mass spectrometer equipped with a Shimadzu Nexera UPLC system. The mean plasma protein binding-adjusted shift for LEN in 100% PTM plasma obtained from 4 independent experiments, each using a single PTM plasma donor performed in triplicate, was then calculated using a non-linear equation.

[2] = Pharmacokinetics of subcutaneous LEN in pigtail macaques; format: in vivo, pigtail macaques (Macaca nemestrina); settings: for range of peak plasma LEN concentration after second dose / mean peak plasma LEN concentration after first dose / range of peak plasma LEN concentration after first dose: N = 3; for time mean plasma drug concentrations above the PA-EC95: two doses 6 weeks apart; for half-life: sc
Description: Sixteen male, purpose-bred pigtail macaques (Macaca nemestrina; ages 4.6–8.5 years at the time of study initiation) were housed at NIH-Bethesda (Supplementary Table S1). All study animals received enrofloxacin (10 mg/kg, administered orally, once per day for 10 days), paromomycin (25 mg/kg, administered orally, twice daily for 7–10 days), and fenbendazole (50 mg/kg administered orally, once per day for 5 days) two weeks to 43 months prior to study initiation. Lenacapavir or drug vehicle (sterile, preservative-free 57.5% w/v polyethylene glycol 300 in water) doses were administered to sedated animals via SC injection into the scapular region such that no more than 2 ml of solution was injected into a single SC site. Animals in the LEN pharmacokinetic evaluation study (N = 6) each received two doses of LEN, both at 15 mg/kg (N = 3) or at 50 mg/kg (N = 3), 6 weeks apart. Animals in the virus challenge experiment each received a single dose of LEN at 25 mg/kg (N = 3, LEN PrEP group) or drug vehicle (N = 4, vehicle control group) 30 days prior to stHIV-A19 challenge, or a cART regimen consisting of tenofovir disoproxil fumarate (TDF), emtricitabine (FTC), and dolutegravir (DTG) (N = 3, TDF/FTC/DTG group), coformulated and administered as previously described[29]^,[30] for 7 days beginning 3 days prior to stHIV-A19 challenge (Supplementary Figure S1). Hair was clipped and skin marked at LEN and vehicle injection sites to allow for subsequent visual and manual assessment and scoring of potential ISRs by non-blinded veterinary care staff. Complete blood counts (CBC) and serum chemistries were monitored prior to and at 2- to 4-week intervals after LEN administration for at least one year. Following the first dose of LEN in the PK study, one animal in the 50-mg/kg dosing group received 7 consecutive days of daily ketoprofen (2 mg/kg) administered intramuscularly for ISR analgesia at veterinary discretion. For the second dose of LEN in the PK study, all animals in the 50-mg/kg dosing group received 5–7 consecutive days of twice daily oral carprofen (2 mg/kg) analgesia administered prophylactically starting on the day of LEN dosing. In the IV challenge PrEP study, all LEN and vehicle control animals received 3–5 consecutive days of twice daily oral carprofen (2 mg/kg) analgesia administered prophylactically starting on the day of injection. For virus challenge, PrEP study animals each received 1 × 10^5 infectious units of stHIV-A19 injected intravenously. After LEN washout, LEN PrEP group animals received a single 50-mg/kg dose of rhesusized depleting anti-CD8α antibody (MT807R1, RRID: AB_2716320, NIH Nonhuman Primate Reagent Resource), administered SC to anesthetized animals.
Whole blood was collected in EDTA Vacutainer Tubes (BD) from sedated animals. Plasma for vRNA quantification, LEN concentration determination, and HIV-1 Western blot analysis was separated from whole blood and clarified by centrifugation, and then stored at −80 °C. Following plasma separation, the blood cellular component was resuspended in an equivalent volume of PBS and then PBMCs were isolated by Ficoll-Paque Plus (GE Healthcare) gradient centrifugation. Portions of isolated PBMC samples were cryopreserved as dry cell pellets for CA-vDNA quantification.
Pigtail macaque plasma samples stored frozen at −80 °C were thawed, and a 50 μl aliquot of each was treated with 200 μl acetonitrile containing a generic internal small-molecule standard. After precipitation of the protein component, a 150 μl aliquot of the supernatant was transferred to a clean 96-well plate and evaporated to dryness under a nitrogen stream. The samples were reconstituted with 100 μL of 50% acetonitrile and then injected into an API-6500+ QTRAP triple quadrupole mass spectrometer (SciEx) with electrospray ionization in positive mode. […]

HIV-1 = tested on: HIV-1; set-up: method as in PMID 32612233; settings: people with HIV-1, monotherapy, 450 mg, after 9 days of treatment; cited from earlier work
[3] = 15 mg/kg SC on Study Day 0 and 42, PTM, N = 3, mean ± SD
[4] = 25 mg/kg single SC dose on Study Day 0, PTM, N = 3, mean ± SD
[5] = 25 mg/kg single SC dose, all three animals
[6] = 50 mg/kg SC on Study Day 0 and 42, PTM, N = 3, mean ± SD

For `CC(C)(C#Cc1ccc(-c2ccc(Cl)c3c(NS(C)(=O)=O)nn(CC(F)(F)F)c23)c([C@H](Cc2cc(F)cc(F)c2)NC(=O)Cn2nc(C(F)(F)F)c3c2C(F)(F)[C@@H]2C[C@H]32)n1)S(C)(=O)=O` [LEN, Lenacapavir], the “projected reduction of antiviral potency in 100% PTM plasma vs complete cell culture media (protein shift)” value [1] was 9.7 fold, the “range of peak plasma LEN concentration after second dose” value ([2]; 15 mg/kg SC on Study Day 0 and 42, PTM) was 57 to 77 nM and the AUCinf [2, 3] was 80.9 ± 2.5 μM∗h. The AUClast [2, 3] was 80.7 ± 2.5 μM∗h, the Cmax ([2]; 15 mg/kg SC on Study Day 0 and 42, PTM, N = 3, mean ± SD, read-out: Cmax (mean peak plasma concentration after second dose)) was 67.8 ± 10.1 nM and the “mean peak plasma LEN concentration after first dose” value ([2]; 15 mg/kg SC, PTM) was 16 nM. The “range of peak plasma LEN concentration after first dose” value ([2]; 15 mg/kg SC, PTM) was 10 to 28 nM, the “time mean plasma drug concentrations above the PA-EC95” value ([2]; 15 mg/kg SC, PTM) was > 189 days and the AUCinf [2, 4] was 92.0 ± 17.8 μM∗h. The AUClast [2, 4] was 91.3 ± 17.8 μM∗h, the “plasma LEN concentration at time of stHIV-A19 challenge relative to PA-EC95” value ([2]; 25 mg/kg single SC dose, 30 days after dosing, all 3 animals) was > 5 fold and the “plasma LEN at 419 days post-challenge” value ([2]; 25 mg/kg single SC dose, LEN PrEP animals) was “no longer detected in plasma”. For the same compound, the “time plasma LEN concentrations remaining above the PA-EC95” value [2, 5] was > 200 days, the “time plasma LEN remaining above the lower limit of quantitation (LLOQ, 0.1 nM)” value [2, 5] was “more than one year” and the “range of peak plasma LEN concentration after second dose” value ([2]; 50 mg/kg SC on Study Day 0 and 42, PTM) was 234 to 350 nM. For the same compound, the AUCinf [2, 6] was 408 ± 106 μM∗h, the AUClast [2, 6] was 408 ± 106 μM∗h and the “mean peak plasma LEN concentration after first dose” value ([2]; 50 mg/kg SC, PTM) was 95 nM. The “range of peak plasma LEN concentration after first dose” value ([2]; 50 mg/kg SC, PTM) was 48 to 120 nM, the “time mean plasma drug concentrations above the PA-EC95” value ([2]; 50 mg/kg SC, PTM) was > 245 days and the half-life ([2]; male, monkey, in vivo, 15 mg/kg, 15 mg/kg SC on Study Day 0 and 42, PTM, N = 3, mean ± SD, read-out: t1/2 (converted)) was 42.1 ± 28.2 days. The half-life ([2]; male, monkey, in vivo, 15 mg/kg, 15 mg/kg SC, after second dose, PTM, read-out: mean terminal half-life (t1/2) (converted)) was 42 days, the half-life ([2]; male, monkey, in vivo, 25 mg/kg, 25 mg/kg single SC dose on Study Day 0, PTM, N = 3, mean ± SD, read-out: t1/2 (converted)) was 38.5 ± 14.2 days and the half-life ([2]; male, monkey, in vivo, 50 mg/kg, 50 mg/kg SC on Study Day 0 and 42, PTM, N = 3, mean ± SD, read-out: t1/2 (converted)) was 48.3 ± 5.83 days. The half-life ([2]; male, monkey, in vivo, 50 mg/kg, 50 mg/kg SC, after second dose, PTM, read-out: mean terminal half-life (t1/2) (converted)) was 48 days, the Cmax ([2]; male, monkey, plasma, Cmax (mean peak plasma concentration after second dose), 15 mg/kg SC on Study Day 0 and 42, PTM, N = 3, mean ± SD, read-out: Cmax (mean peak plasma concentration after second dose)) was 68 nM and the Cmax ([2]; male, monkey, plasma, Cmax (mean peak plasma concentration after second dose), 50 mg/kg SC on Study Day 0 and 42, PTM, N = 3, mean ± SD, read-out: Cmax (mean peak plasma concentration after second dose)) was 295 ± 58 nM. It also gave a Cmax ([2]; male, monkey, plasma, Cmax, 25 mg/kg single SC dose on Study Day 0, PTM, N = 3, mean ± SD, read-out: Cmax) of 47 ± 5.7 nM, a half-life ([2]; male, pigtail macaque, in vivo, 25 mg/kg, 25 mg/kg single SC dose, PTM, read-out: mean t1/2 (converted)) of 38.5 days and a concentration at 30 days ([2]; male, pigtail macaque, in vivo, 25 mg/kg single SC dose, 30 days after dosing, range of 3 animals, read-out: plasma LEN concentrations at the time of stHIV-A19 challenge) of 8.6 to 51.2 nM. For the same compound, the “maximum reductions in plasma viral loads” value (HIV-1) was > 100 fold.
